# In article PMC3513969 (Evidence-based Complementary and Alternative Medicine : eCAM, 2012):
# Legend:
# CYP1A2 = biological target: T1, CYP1A2 (Homo sapiens, UniProt P05177); assay: Inhibition of CYP1A2 activity in human liver microsomes (acetaminophen/phenacetin ratio); type: biochemical; conditions: extracts as lovastatin concentration, mean ± SEM, 3-4 preparations
# T1 construct: Human liver microsomes (UltraPool HLM 150) were purchased from BD Biosciences; tissue BD Biosciences UltraPool HLM 150; host or cells: pooled human liver microsomes
# T1 sequence (P05177 1-516): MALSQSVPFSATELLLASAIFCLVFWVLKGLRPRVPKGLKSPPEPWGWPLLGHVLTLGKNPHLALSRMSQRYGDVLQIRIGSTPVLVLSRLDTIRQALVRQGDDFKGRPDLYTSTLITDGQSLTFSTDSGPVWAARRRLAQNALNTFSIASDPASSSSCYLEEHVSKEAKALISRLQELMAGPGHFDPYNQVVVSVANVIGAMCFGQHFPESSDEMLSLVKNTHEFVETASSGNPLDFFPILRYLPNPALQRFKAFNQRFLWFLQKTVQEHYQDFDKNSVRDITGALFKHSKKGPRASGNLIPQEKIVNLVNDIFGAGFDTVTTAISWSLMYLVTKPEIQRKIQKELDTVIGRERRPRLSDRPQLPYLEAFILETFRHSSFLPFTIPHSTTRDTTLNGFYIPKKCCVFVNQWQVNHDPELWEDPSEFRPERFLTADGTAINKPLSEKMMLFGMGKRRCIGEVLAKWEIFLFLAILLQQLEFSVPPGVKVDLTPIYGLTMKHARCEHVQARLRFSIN
# CYP2B6 = biological target: T2, CYP2B6 (Homo sapiens, UniProt P20813); assay: Inhibition of CYP2B6 activity in human liver microsomes (hydroxybupropion/bupropion ratio); type: biochemical
# T2 construct: Human liver microsomes (UltraPool HLM 150) were purchased from BD Biosciences; tissue BD Biosciences UltraPool HLM 150; host or cells: pooled human liver microsomes
# T2 sequence (P20813 1-491): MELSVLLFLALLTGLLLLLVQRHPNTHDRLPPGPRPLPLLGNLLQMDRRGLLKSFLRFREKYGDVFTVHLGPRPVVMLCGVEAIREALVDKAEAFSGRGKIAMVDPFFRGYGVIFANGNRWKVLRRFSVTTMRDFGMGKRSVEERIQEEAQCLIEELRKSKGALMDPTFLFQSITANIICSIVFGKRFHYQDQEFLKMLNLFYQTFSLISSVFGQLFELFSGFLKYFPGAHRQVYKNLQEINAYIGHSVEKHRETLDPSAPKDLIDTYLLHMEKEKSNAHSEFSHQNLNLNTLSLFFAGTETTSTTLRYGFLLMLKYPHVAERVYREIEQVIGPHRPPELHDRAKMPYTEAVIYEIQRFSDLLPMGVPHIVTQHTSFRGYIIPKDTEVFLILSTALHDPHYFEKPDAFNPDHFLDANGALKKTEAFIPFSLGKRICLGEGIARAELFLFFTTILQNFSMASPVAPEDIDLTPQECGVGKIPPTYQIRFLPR
# CYP2D6 = biological target: T3, CYP2D6 (Homo sapiens, UniProt P10635); assay: Inhibition of CYP2D6 activity in human liver microsomes (dextrorphan/dextromethorphan ratio); type: biochemical
# T3 construct: Human liver microsomes (UltraPool HLM 150) were purchased from BD Biosciences; tissue BD Biosciences UltraPool HLM 150; host or cells: pooled human liver microsomes
# [1] = Pharmacokinetic interaction between gemfibrozil and LipoCol Forte; type: in vivo, human; conditions: for Effect of concomitant gemfibrozil on pharmacokinetic parameters (AUC, Cmax): one LipoCol Forte capsule, gemfibrozil 600 mg twice daily; for AUC(0-t): read-out: AUC0–12
# Experimental: The volunteers were fasted overnight before dosing and a high fat breakfast or dinner was served 0.5 h after administration of gemfibrozil. […] Blood samples were prepared as described in the previous section (dose-escalation study).
# [2] = Single dose escalation and multiple dosing pharmacokinetic study of LipoCol Forte; conditions: for CL/F / Accumulation with multiple dosing / Dose linearity of pharmacokinetic properties (AUC, Cmax) / AUC(0-inf) / Cmax / MRT / Tmax / Vd/F / AUC0–12/dose / AUC0–inf/dose / Cmax/dose: healthy subjects; for CL/F / AUC(0-t) / AUC(0-inf) / Cmax / MRT / half-life / Tmax / Vd/F / AUC0–12/dose / AUC0–inf/dose / Cmax/dose: fed, mean ± SD, n = 14; for Accumulation with multiple dosing: one LipoCol Forte capsule twice daily for 5 days; for Dose linearity of pharmacokinetic properties (AUC, Cmax): single dose of 1, 2 or 4 LipoCol Forte capsules; for AUC(0-t) / AUC(0-inf) / Cmax / MRT / half-life / Tmax / Vd/F: human, plasma, oral; for AUC(0-t): AUC0–12, healthy subjects; for AUC(0-inf): AUC0–inf; for half-life: T1/2, healthy subjects
# Experimental: A high fat breakfast (including two eggs fried in butter, two strips of bacon, two slices of toast with butter, four ounces of hash brown potatoes, and eight ounces of whole milk) was provided 30 min before dosing. All doses were administered with 240 mL of water. […] A high fat breakfast or dinner was served 30 min before dosing. One capsule was administered with 240 mL of water. […] Within 30 min of collection, the samples were centrifuged at 2,600 g for 10 minutes at 4°C and the plasma transferred to labeled polypropylene tubes containing 50 μL of 17% phosphoric acid and stored at −80°C until analysis.
# The pharmacokinetics were characterized, when appropriate, by the peak concentration in the plasma (C max⁡), time to reach the peak concentration (T max⁡), area under the plasma concentration versus time curve from time zero to the time of the last quantifiable concentration (AUC0−t), AUC from time zero to the time extrapolated to infinity (AUC0−inf⁡), half-life (T 1/2), mean residence time (MRT), apparent clearance (CL/F), and apparent volume of distribution (V d/F).
# P-gp = P-gp (Homo sapiens, UniProt P08183); type: cell-based; conditions: MDCK-MDR1 cells, 25 μM (extracts adjusted to 25 μM lovastatin)
# Experimental: MDCK-MDR1 cells (2.5 × 10^4 cells/cm^2) (from The Netherlands Cancer Institute) were cultured in polystyrene Nunclon multidishes under an atmosphere of 5% CO2/95% air. The minimal essential medium (MEM) (Invitrogen, CA, USA) contained 10% fetal bovine serum (Hyclone, UT, USA), 5.5 mM L-glutamine, 1.5 mg/mL of sodium bicarbonate, and 1 mM sodium pyruvate (all from Sigma, MO, USA), and 100 unit/mL of penicillin and 0.1 mg/mL of streptomycin (both from Invitrogen). […] The percentage of inhibition of P-gp activity and the IC50 values for P-gp inhibition were determined by the methods described by Rautio et al..
# [3] = healthy subjects, single dose one LipoCol Forte capsule alone, mean ± SD, n = 13
# [4] = healthy subjects, single dose one LipoCol Forte capsule with coadministration of 600 mg gemfibrozil twice daily, mean ± SD, n = 13
# [5] = human, plasma, oral, 1 LipoCol Forte capsule
# [6] = human, plasma, oral, 1 LipoCol Forte capsule, read-out: Tmax
# [7] = multiple doses one LipoCol Forte capsule BID for 5 days
# [8] = single dose four LipoCol Forte capsules
# [9] = single dose one LipoCol Forte capsule
# [10] = single dose two LipoCol Forte capsules
# [11] = 1 LipoCol Forte capsule, multiple doses one LipoCol Forte capsule BID for 5 days
# [12] = 1 LipoCol Forte capsule, single dose one LipoCol Forte capsule
# [13] = 2 LipoCol Forte capsules, single dose two LipoCol Forte capsules
# [14] = 4 LipoCol Forte capsules, single dose four LipoCol Forte capsules
# Chain of P-gp (P08183 whole entry): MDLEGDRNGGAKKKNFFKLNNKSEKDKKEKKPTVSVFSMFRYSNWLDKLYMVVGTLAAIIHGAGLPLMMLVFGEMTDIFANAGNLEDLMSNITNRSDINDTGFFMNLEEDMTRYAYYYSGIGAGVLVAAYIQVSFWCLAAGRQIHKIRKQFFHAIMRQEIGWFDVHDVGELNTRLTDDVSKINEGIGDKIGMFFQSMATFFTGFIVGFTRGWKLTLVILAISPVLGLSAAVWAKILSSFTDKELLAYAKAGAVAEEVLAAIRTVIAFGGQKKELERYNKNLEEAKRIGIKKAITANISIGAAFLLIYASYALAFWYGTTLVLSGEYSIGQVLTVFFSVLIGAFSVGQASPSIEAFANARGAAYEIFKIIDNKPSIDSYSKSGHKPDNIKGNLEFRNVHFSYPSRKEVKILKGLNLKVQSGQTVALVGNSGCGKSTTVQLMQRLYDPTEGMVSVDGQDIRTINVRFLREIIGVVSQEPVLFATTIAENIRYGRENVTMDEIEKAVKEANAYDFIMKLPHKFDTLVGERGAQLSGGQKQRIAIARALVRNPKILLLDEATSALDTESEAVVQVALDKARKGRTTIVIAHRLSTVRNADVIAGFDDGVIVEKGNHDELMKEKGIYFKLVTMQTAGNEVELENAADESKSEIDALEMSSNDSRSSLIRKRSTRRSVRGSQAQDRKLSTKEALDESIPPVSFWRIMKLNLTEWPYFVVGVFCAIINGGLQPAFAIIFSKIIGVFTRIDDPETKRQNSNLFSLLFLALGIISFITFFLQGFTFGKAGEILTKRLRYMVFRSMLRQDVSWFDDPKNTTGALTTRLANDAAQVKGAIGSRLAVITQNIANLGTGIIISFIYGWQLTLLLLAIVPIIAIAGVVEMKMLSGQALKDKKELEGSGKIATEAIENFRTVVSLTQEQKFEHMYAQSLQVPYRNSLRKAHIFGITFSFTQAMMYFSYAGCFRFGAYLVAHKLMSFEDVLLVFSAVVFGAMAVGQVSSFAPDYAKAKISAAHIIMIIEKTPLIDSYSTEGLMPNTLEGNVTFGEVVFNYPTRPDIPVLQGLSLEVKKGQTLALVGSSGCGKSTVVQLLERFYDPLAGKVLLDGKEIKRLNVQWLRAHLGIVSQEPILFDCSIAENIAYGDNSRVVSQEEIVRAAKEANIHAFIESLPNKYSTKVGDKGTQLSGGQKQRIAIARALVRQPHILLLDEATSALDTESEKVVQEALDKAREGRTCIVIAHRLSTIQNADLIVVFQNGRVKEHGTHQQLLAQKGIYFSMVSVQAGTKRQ
# T3 sequence (P10635 whole entry): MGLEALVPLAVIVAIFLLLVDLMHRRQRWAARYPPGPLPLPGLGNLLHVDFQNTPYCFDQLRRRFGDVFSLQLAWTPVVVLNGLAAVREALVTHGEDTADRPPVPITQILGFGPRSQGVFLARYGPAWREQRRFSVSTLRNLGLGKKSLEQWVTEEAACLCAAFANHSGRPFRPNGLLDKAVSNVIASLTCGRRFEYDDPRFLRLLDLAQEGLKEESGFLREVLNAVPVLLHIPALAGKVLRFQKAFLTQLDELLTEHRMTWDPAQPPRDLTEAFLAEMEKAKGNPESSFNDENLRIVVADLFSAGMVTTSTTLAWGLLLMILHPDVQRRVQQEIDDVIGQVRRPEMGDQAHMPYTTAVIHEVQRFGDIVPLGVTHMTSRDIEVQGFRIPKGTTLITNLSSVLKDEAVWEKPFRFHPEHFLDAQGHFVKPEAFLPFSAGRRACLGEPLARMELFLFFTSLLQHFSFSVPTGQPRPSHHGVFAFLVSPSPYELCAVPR
compound,measurement,setting,value
"CC[C@H](C)C(=O)O[C@H]1C[C@@H](C)C=C2C=C[C@H](C)[C@H](CC[C@@H]3C[C@@H](O)CC(=O)O3)[C@H]21 [Pure lovastatin, lovastatin, reference compound]",IC50,CYP1A2,> 100 µM
same,IC50,CYP2B6,15 ± 1.11 µM
same,IC50 at 20 min,"CYP2B6; human, human liver microsomes, probe bupropion",9 to 16 µM
same,IC50,CYP2D6,> 50 µM
same,"Effect of concomitant gemfibrozil on pharmacokinetic parameters (AUC, Cmax)",[1]; healthy subjects,no significant effects
same,CL/F,[1]; [3],1374.0 ± 782.6 L/h
same,CL/F,[1]; [4],1372.5 ± 763.8 L/h
same,Tmax,[1]; [4],3.00 ± 1.37 h
same,AUC(0-inf),[1]; [5],5.68 ± 3.48 ng·h/mL
same,Cmax,[1]; [5],1.53 ± 1.45 ng/mL
same,MRT,[1]; [5],4.87 ± 1.28 h
same,Vd/F,[1]; [5],4000 ± 2600 L
same,half-life,[1]; [5],2.12 ± 0.7 h
same,AUC(0-t),[1]; [5],5 ± 3.29 ng·h/mL
same,Tmax,[1]; [6],3.08 ± 1.17 h
same,CL/F,[2]; [7],1339.5 ± 763.3 L/h
same,CL/F,[2]; [8],1128.8 ± 624.4 L/h
same,CL/F,[2]; [9],941.7 ± 453.5 L/h
same,CL/F,[2]; [10],994.5 ± 548.8 L/h
same,Accumulation with multiple dosing,[2],no accumulation
same,"Dose linearity of pharmacokinetic properties (AUC, Cmax)",[2],linear
same,AUC(0-t),[2]; [11],5.22 ± 2.6 ng·h/mL
same,AUC(0-t),[2]; [12],6.74 ± 3.27 ng·h/mL
same,AUC(0-inf),[2]; [11],5.71 ± 2.68 ng·h/mL
same,AUC(0-inf),[2]; [12],7.47 ± 3.44 ng·h/mL
same,Cmax,[2]; [11],1.41 ± 0.69 ng/mL
same,Cmax,[2]; [12],1.61 ± 0.8 ng/mL
same,MRT,[2]; [11],4.81 ± 1.24 h
same,MRT,[2]; [12],5.55 ± 1.98 h
same,half-life,[2]; [11],1.93 ± 0.43 h
same,half-life,[2]; [12],2.36 ± 0.66 h
same,Tmax,[2]; [11],3.39 ± 1.38 h
same,Tmax,[2]; [12],3.46 ± 1.28 h
same,Vd/F,[2]; [11],3570 ± 1800 L
same,Vd/F,[2]; [12],3080 ± 1330 L
same,AUC(0-t),[2]; [13],13.4 ± 6.07 ng·h/mL
same,AUC(0-inf),[2]; [13],14.4 ± 6.3 ng·h/mL
same,Cmax,[2]; [13],3.36 ± 1.81 ng/mL
same,MRT,[2]; [13],5.27 ± 1.42 h
same,half-life,[2]; [13],2.36 ± 0.68 h
same,Tmax,[2]; [13],3.29 ± 1.35 h
same,Vd/F,[2]; [13],3380 ± 2050 L
same,AUC(0-t),[2]; [14],24.9 ± 14.2 ng·h/mL
same,AUC(0-inf),[2]; [14],26.8 ± 15.4 ng·h/mL
same,Cmax,[2]; [14],5.7 ± 3.42 ng/mL
same,MRT,[2]; [14],5.51 ± 1.11 h
same,half-life,[2]; [14],2.42 ± 0.45 h
same,Tmax,[2]; [14],3.25 ± 0.78 h
same,Vd/F,[2]; [14],3860 ± 1960 L
C/C=C/C[C@@H](C)C(=O)[C@H]1C(=O)N[C@@H](C(C)C)C(=O)N(C)CC(=O)N(C)[C@@H](CC(C)C)C(=O)N[C@@H](C(C)C)C(=O)N(C)[C@@H](CC(C)C)C(=O)N[C@@H](C)C(=O)N[C@H](C)C(=O)N(C)[C@@H](CC(C)C)C(=O)N(C)[C@@H](CC(C)C)C(=O)N(C)[C@@H](C(C)C)C(=O)N1C [PSC833],Inhibition of P-gp activity (digoxin uptake),P-gp,highest inhibition
"CC[C@H](C)C(=O)O[C@H]1C[C@@H](C)C=C2C=C[C@H](C)[C@H](CC[C@@H](O)C[C@@H](O)CC(=O)O)[C@H]21 [Lovastatin acid, lovastatin acid]","Effect of concomitant gemfibrozil on pharmacokinetic parameters (AUC, Cmax)",[1]; healthy subjects,significantly increased
same,CL/F,[1]; [3],218.4 ± 108.6 L/h
same,CL/F,[1]; [4],99.9 ± 48.4 L/h
same,AUC(0-inf),[1]; [5],33.1 ± 18.2 ng·h/mL
same,Cmax,[1]; [5],6.79 ± 3.78 ng/mL
same,MRT,[1]; [5],6.19 ± 1.38 h
same,Vd/F,[1]; [5],644 ± 586 L
same,half-life,[1]; [5],1.94 ± 0.75 h
same,AUC(0-t),[1]; [5],31.1 ± 16.5 ng·h/mL
same,Tmax,[1]; [6],4.85 ± 1.14 h
same,AUC0–12/dose,[2]; [7],5.69 ± 1.70
same,AUC0–inf/dose,[2]; [7],5.92 ± 1.70
same,CL/F,[2]; [7],192.3 ± 63.7 L/h
same,Cmax/dose,[2]; [7],1.41 ± 0.57
same,AUC0–12/dose,[2]; [8],6.94 ± 2.64
same,AUC0–inf/dose,[2]; [8],7.42 ± 2.76
same,CL/F,[2]; [8],150.2 ± 45.9 L/h
same,Cmax/dose,[2]; [8],1.59 ± 0.75
same,AUC0–12/dose,[2]; [9],5.75 ± 2.30
same,AUC0–inf/dose,[2]; [9],6.72 ± 2.85
same,CL/F,[2]; [9],172.9 ± 68.1 L/h
same,Cmax/dose,[2]; [9],1.37 ± 0.72
same,AUC0–12/dose,[2]; [10],6.94 ± 2.42
same,AUC0–inf/dose,[2]; [10],7.50 ± 2.44
same,CL/F,[2]; [10],145.7 ± 43.1 L/h
same,Cmax/dose,[2]; [10],1.56 ± 0.81
same,Accumulation with multiple dosing,[2],no accumulation
same,"Dose linearity of pharmacokinetic properties (AUC, Cmax)",[2],linear
same,AUC(0-t),[2]; [11],32.4 ± 9.7 ng·h/mL
same,AUC(0-t),[2]; [12],33 ± 13.1 ng·h/mL
same,AUC(0-inf),[2]; [11],33.7 ± 9.7 ng·h/mL
same,AUC(0-inf),[2]; [12],38.3 ± 16.2 ng·h/mL
same,Cmax,[2]; [11],8.04 ± 3.24 ng/mL
same,Cmax,[2]; [12],7.78 ± 4.12 ng/mL
same,MRT,[2]; [11],5.59 ± 1.15 h
same,MRT,[2]; [12],7.15 ± 3.3 h
same,half-life,[2]; [11],1.92 ± 0.34 h
same,half-life,[2]; [12],2.57 ± 1.74 h
same,Tmax,[2]; [11],4.36 ± 0.93 h
same,Tmax,[2]; [12],5.07 ± 1.59 h
same,Vd/F,[2]; [11],544 ± 241 L
same,Vd/F,[2]; [12],603 ± 337 L
same,AUC(0-t),[2]; [13],79.1 ± 27.6 ng·h/mL
same,AUC(0-inf),[2]; [13],85.4 ± 27.8 ng·h/mL
same,Cmax,[2]; [13],17.8 ± 9.21 ng/mL
same,MRT,[2]; [13],6.43 ± 1.77 h
same,half-life,[2]; [13],2.07 ± 0.68 h
same,Tmax,[2]; [13],5.14 ± 1.7 h
same,Vd/F,[2]; [13],438 ± 189 L
same,AUC(0-t),[2]; [14],158 ± 60.2 ng·h/mL
same,AUC(0-inf),[2]; [14],169 ± 62.9 ng·h/mL
same,Cmax,[2]; [14],36.2 ± 17.1 ng/mL
same,MRT,[2]; [14],6.39 ± 1.43 h
same,half-life,[2]; [14],2.04 ± 0.68 h
same,Tmax,[2]; [14],5 ± 1.52 h
same,Vd/F,[2]; [14],456 ± 265 L
